Measured values taken from paper PMC9138683, “Decoding the Role of Melatonin Structure on Plasmodium falciparum Human Malaria Parasites Synchronization Using 2-Sulfenylindoles Derivatives” (Biomolecules, 2022).
Entries after “also recorded” stand apart in the source; their conditions may differ. Read-outs that look alike come from different tables or passages of the source.

Key:
[1] = test system: Plasmodium falciparum 3D7 (chloroquine-sensitive); test: In vitro drug susceptibility assay, 3D7 strain (flow cytometry, SYBR Green I / MitoTracker Deep Red); type: cell-based; details: read-out: IC50 ± SD Pf3D7
Experimental: (§1) The cultures were maintained under an atmosphere of 5% CO2, 5% O2, and 90% N2. Fresh complete medium was provided daily, and rapid-stained (Panotico) blood smears were examined.
(§2) To evaluate the effects of synthetic compounds on the intraerythrocytic development of P. falciparum, we analyzed parasitemia by flow cytometry with 0.3% initial parasitemia and 1% hematocrit in the assay. Plates were incubated with the compounds at concentrations ranging from 0.10 to 100 µM for 72 h. Dual staining with SYBR Green I (SG-I) (Invitrogen, Waltham, MA, USA) and MitoTracker Deep Red (MT-Red) (Invitrogen) were used to label nucleic acids and mitochondria, respectively. Approximately 10,000 cells were counted by an Accuri C6 (Becton Dickinson, San Jose, CA, USA) and analyzed by FlowJo 5 software. Parasitemia was determined from the analysis of dot plots (side scatter versus fluorescence).
(§3) We determined the susceptibility of P. falciparum to the indole compounds and investigated whether CQR parasites responded differently to the compounds. […] We determined the IC50 values for each compound by analyzing viable and non-viable parasites after compound treatment, represented in dot plots (Figure 1H).

[2] = test system: Plasmodium falciparum Dd2 (chloroquine-resistant); test: In vitro drug susceptibility assay, Dd2 strain (flow cytometry, SYBR Green I / MitoTracker Deep Red); type: cell-based; details: read-out: IC50 ± SD PfDd2
Experimental: as §1, §2, §3

Cytotoxicity assay (MTT) = type: cell-based, human; details: human, HEK293T (HEK293) cells, 0.10-100 µM, read-out: CC50 ± SD HEK293
Experimental: HEK293T (human embryonic kidney) cells were cultured in 75 cm^2 vented tissue culture flasks (Greiner Bio-One, Frickenhausen, Germany) at 37 °C in a humidified atmosphere containing 5% CO2 in Dulbecco’s modified […] (Gibco) supplemented with 10% (v/v) fetal bovine serum (Gibco), 100 U/mL penicillin, and 100 μg/mL streptomycin (Sigma). Cytotoxicity was evaluated with the 4,5-dimethylthiazol-2-yl-2,5-diphenyltetrazolium bromide (MTT) cell proliferation assay. Briefly, 10^4 cells/well were seeded in flat-bottom 96-well plates in complete DMEM medium for 24 h, followed by incubation with different concentrations of each compound (0.10–100 µM) for 72 h. DMSO (0.13%) and digitonin were used as the negative and positive controls, respectively. The concentrations of DMSO chosen as control were the concentration present in the tested compounds (from 0.0001% to 0.12%, two-fold dilution). After 72 h, cells were then incubated with the MTT reagent for 3 h, and absorbance was measured at 570 nm using a FlexStation® 3 Multi-Mode Microplate Reader (Molecular Devices, Sunnyvale, CA, USA). Moreover, we calculated the selectivity indexes (SI) to understand whether the compounds were more toxic to parasites than cells, or vice versa, according to the ratio of the CC50 value to the IC50 value for each compound.
We further assessed the toxicity of 2-sulfenylindole compounds against HEK293 cells using the MTT assay with different concentrations of the compounds for 72 h. Table 1 presents all the toxicity data and summarizes the IC50 values of the compounds evaluated in this study for Dd2 and 3D7 strains.

[3] = test system: P. falciparum 3D7 parasites; test: Effects of indole derivatives (500 nM) on parasitemia; type: cell-based, Plasmodium falciparum; details: for activity at 0.5 µM: Plasmodium falciparum, normalized to DMSO control, read-out: Parasitemia (%) Treatment with compound (500nM); for activity at 0.5 µM / increase in parasitemia / decrease in parasitemia: 3D7, 48 h; for effect on parasitemia (in words): 500 nM compound alone, 3D7 asynchronous, 48 h; for increase in parasitemia / decrease in parasitemia: 500 nM compound; for increase in parasitemia: compared to DMSO control (100.6%); for decrease in parasitemia: compared to DMSO control
Experimental: (§4) To evaluate the role of the compounds in parasitemia, 1% 3D7 parasites in 2% hematocrit were incubated for 48 h with 500 nM of the 2-sulfenylindole derivatives. Melatonin (100 nM) was used as a positive control, and DMSO (0.0013% v/v) was used as a negative control. The concentration of DMSO chosen as control was the concentration present in the tested compounds at 500 nM. The activity of the compounds was measured by SG-I and MT-Red staining. The data obtained were normalized to those of the control (DMSO). Additionally, to test the ability of the compounds to affect melatonin activity in parasitemia, 3D7 parasites were incubated with 500 nM indole compounds along with 100 nM melatonin for 48 h.
After incubation, the final parasitemia was determined using flow cytometry.

[4] = test system: P. falciparum 3D7 parasites; test: Effect of 2-sulfenylindoles in combination with 100 nM melatonin on parasitemia; type: cell-based, Plasmodium falciparum; details: 3D7, 48 h; for Parasitemia (%) Treatment with compound (500nM) + Melatonin (100nM): normalized to DMSO control
Experimental: as §4
Following the assumption that compounds resembling melatonin structure might interact through the melatonin signaling pathways, we evaluated the effect of the compounds on melatonin action on parasitemia. Our next step was to study the combination of 2-sulfenylindoles with melatonin in asynchronous 3D7 by incubating parasites simultaneously with 100 nM melatonin and 500 nM of each compound.

P. falciparum 3D7 strain = test: Blood-stage development evaluation by microscopy; type: cell-based, Plasmodium falciparum; details: ring-stage synchronized 3D7, treated at IC50 (30 µM for 20 and 28), monitored every 12 h
Experimental: Ring-stage parasites (10–14 h) at 1% parasitemia in 2% hematocrit were treated with compound 20 and compound 28 at concentrations of 1 and 30 µM in 24-well plates for 48 h. Treatment with chloroquine (20 nM) and DMSO (0.1%) was used as positive and negative controls. Smears were rapid stained (Panotico) every 12 h after treatment (12, 24, 36, 48, and 60 h time points), and we took images of parasites to assess the blood-stage development (Zeiss, Oberkochen, Germany).
During monitoring, parasites continued to develop throughout the cycle in the presence of both compounds. […] To examine its stage specificity, we monitored development every 12 h.
Figure 5 Parasitemia reduction with compound 20 (A) and compound 28 (B) to determine the stage activity. Data are means ± SD. Ring-stage synchronized parasites with sorbitol 5% were treated with chloroquine (20 nM), compound 20 (30 µM), and compound 28 (30 µM). The chosen treatment concentration was the IC50 values obtained for these compounds against the 3D7 parasites. (C) After drug administration, smears of P. falciparum 3D7 strain were taken at 0, 12, 24, 36, 48, and 60 h after drug administration, observing the growth development of treated parasites. * p ≤ 0.05, ** p ≤ 0.01, *** p ≤ 0.001.

[5] = Plasmodium falciparum, 3D7, 72 h, asynchronous parasites, 72 h, 0.1-100 µM
[6] = Plasmodium falciparum, DD2, 72 h, asynchronous parasites, 72 h, 0.1-100 µM
[7] = asynchronous parasites, 72 h, 0.1-100 µM
[8] = 500 nM compound + 100 nM melatonin

Row | IC50 [1, 5] [µM] | IC50 [2, 6] [µM] | IC50 [1, 7] [µM] | IC50 [2, 7] [µM] | SMILES | CC50 at 72 h (Cytotoxicity assay (MTT)) [µM] | activity at 0.5 µM [3] [%] | Parasitemia (%) Treatment with compound (500nM) + Melatonin (100nM) [4] [%] | effect on parasitemia (in words) [3] | increase in parasitemia [3] [%] | decrease in parasitemia [3] [%] | increase in parasitemia compared to control group ([4]; 500 nM compound + 100 nM melatonin, versus control group (100.7%)) [%] | stage-specific effect on blood-stage development (P. falciparum 3D7 strain) | effect on melatonin action on parasitemia (in words) [4, 8] | IC50 ([1]; Plasmodium falciparum, 3D7, 72 h) [µM] | IC50 ([2]; Plasmodium falciparum, DD2, 72 h) [µM]
1 | < 20 | < 20 | 19.1 ± 1.78 | 16.9 ± 4.66 | CCCCCCCCCCCCSc1[nH]c2cc(Cl)ccc2c1CC(=O)OC [Compound 21] | > 100 | 104.4 ± 1 | 111.9 ± 2.78 | led to an increase in parasitemia | 3.8 |  |  |  |  |  | 
2 | 27.8 ± 2.03 | 39.9 ± 1.61 |  |  | COC(=O)Cc1c(SCCCCO)[nH]c2ccccc12 [Compound 19] | 28.1 ± 5.46 | 100 ± 1.81 | 118.5 ± 2.85 |  |  |  |  |  |  |  | 
3 | < 20 | 35.8 ± 4.64 | 13.5 ± 2.37 |  | c1ccc(Cc2c(Sc3ccccc3)[nH]c3ccccc23)cc1 [Compound 26] | 34.7 ± 8.44 | 92.7 ± 4.17 | 110.4 ± 3.18 |  |  | 7.94 |  | reduced the progress from rings to trophozoites; also recorded: affect ring to trophozoite progression |  |  | 
4 | < 20 | < 20 | 13.5 ± 3.24 | 15.7 ± 4.87 | COC(=O)Cc1c(SC23CC4CC(CC(C4)C2)C3)[nH]c2ccccc12 [Compound 18] | 16.8 ± 2.63 | 98 ± 2.61 | 113.9 ± 2.90 |  |  |  |  | reduced the progress from rings to trophozoites; also recorded: affect ring to trophozoite progression |  |  | 
5 | 26.5 ± 4.87 | 45.5 ± 4.84 |  |  | COC(=O)Cc1c(Sc2ccccc2)[nH]c2ccc(OC)cc12 [Compound 25] | 13.1 ± 3.74 | 107 ± 2.46 | 112.8 ± 2.93 | led to an increase in parasitemia | 6.6 |  |  |  | did not potentiate or block the effect of melatonin on parasitemia |  | 

The next lines start with the molecule.

Row | SMILES | IC50 [1, 5] [µM] | IC50 [2, 6] [µM] | IC50 [1, 7] [µM] | IC50 [2, 7] [µM] | CC50 at 72 h (Cytotoxicity assay (MTT)) [µM] | activity at 0.5 µM [3] [%] | Parasitemia (%) Treatment with compound (500nM) + Melatonin (100nM) [4] [%] | effect on parasitemia (in words) [3] | increase in parasitemia [3] [%] | decrease in parasitemia [3] [%] | increase in parasitemia compared to control group ([4]; 500 nM compound + 100 nM melatonin, versus control group (100.7%)) [%] | stage-specific effect on blood-stage development (P. falciparum 3D7 strain) | effect on melatonin action on parasitemia (in words) [4, 8] | IC50 ([1]; Plasmodium falciparum, 3D7, 72 h) [µM] | IC50 ([2]; Plasmodium falciparum, DD2, 72 h) [µM]
6 | COC(=O)Cc1c(Sc2ccccc2C(=O)O)[nH]c2ccccc12 [Compound 8] | 37.3 ± 3.58 | 43.3 ± 6.51 |  |  | > 100 | 102 ± 1.71 | 133.5 ± 8.06 |  |  |  |  |  |  |  | 
7 | COC(=O)Cc1c(Sc2cccc(O)c2)[nH]c2ccccc12 [Compound 7] | 58.2 ± 2.45 | 55.4 ± 2.96 |  |  | 31.6 ± 4.03 | 96.5 ± 2.39 | 122.9 ± 5.60 |  |  | 4.05 | 22.2 |  |  |  | 
8 | CCSc1[nH]c2ccccc2c1CC(=O)OC [Compound 17] | 25 ± 2.9 | 35.4 ± 1.56 |  |  | 26.5 ± 4.67 | 98.6 ± 2.95 | 123.6 ± 3.11 | did not affect parasitemia |  |  |  |  |  |  | 
9 | COC(=O)Cc1c(Sc2ncccn2)[nH]c2ccccc12 [Compound 10] | 54.9 ± 2.25 | 43.6 ± 3.06 |  |  | > 100 | 101 ± 2.14 | 130.2 ± 6.02 |  |  |  |  |  |  |  | 
10 | COC(=O)Cc1c(SC(C)(C)C)[nH]c2ccccc12 [Compound 16] | 31.7 ± 5.09 | 48.5 ± 2.88 |  |  | 26.5 ± 8.7 | 112 ± 1.76 | 127.4 ± 4.10 | led to an increase in parasitemia | 11.2 |  |  |  |  |  | 
11 | COC(=O)Cc1c(Sc2ccccc2)[nH]c2ccccc12 [Compound 3] | < 20 | < 20 | 10.6 ± 5.19 | 18 ± 1.72 | 15.2 ± 1.36 | 98.2 ± 2.28 | 129.8 ± 6.78 | no increase was observed |  |  |  | reduced the progress from rings to trophozoites; also recorded: affect ring to trophozoite progression | slight increase in parasitemia |  | 
12 | COC(=O)Cc1c(SCc2ccccc2)[nH]c2ccccc12 [Compound 14] | 20.9 ± 2.97 | 37.1 ± 7.66 |  |  | 23.7 ± 8.54 | 97.8 ± 3.41 | 128.5 ± 4.13 |  |  |  |  |  |  |  | 
13 | CCN(CC)CCCC(C)Nc1ccnc2cc(Cl)ccc12 (stereo not shown) [Chloroquine, reference compound] |  |  |  |  |  |  |  |  |  |  |  |  |  | 0.0223 ± 0.00417 | 0.199 ± 0.0262
